According to paper PMC2574903 (Biochimica et biophysica acta, 2008):
Where two headings read alike, the source gives them in different places.

Key:
CES1 [1] = molecular target: T1, CES1 (Homo sapiens, UniProt P23141); experiment: Hydrolysis of 4-methylumbelliferyl oleate; format: biochemical
T1 sequence (P23141 18-567): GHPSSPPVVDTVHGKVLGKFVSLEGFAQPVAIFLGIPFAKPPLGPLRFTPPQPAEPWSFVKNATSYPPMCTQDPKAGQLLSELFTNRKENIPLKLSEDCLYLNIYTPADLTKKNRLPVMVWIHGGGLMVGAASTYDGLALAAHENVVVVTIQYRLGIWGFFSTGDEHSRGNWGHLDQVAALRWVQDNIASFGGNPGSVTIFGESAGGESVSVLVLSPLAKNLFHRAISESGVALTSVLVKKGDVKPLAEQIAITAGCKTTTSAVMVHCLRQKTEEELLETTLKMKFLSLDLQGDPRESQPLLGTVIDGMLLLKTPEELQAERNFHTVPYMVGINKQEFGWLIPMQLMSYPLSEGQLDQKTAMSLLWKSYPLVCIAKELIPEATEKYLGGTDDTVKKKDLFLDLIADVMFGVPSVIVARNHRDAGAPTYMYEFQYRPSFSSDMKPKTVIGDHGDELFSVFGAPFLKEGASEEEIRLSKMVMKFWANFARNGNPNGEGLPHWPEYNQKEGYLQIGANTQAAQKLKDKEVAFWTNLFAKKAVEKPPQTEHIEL

porcine pancreatic CEL = molecular target: T2, porcine pancreatic CEL (Sus scrofa, UniProt A0A286ZKB1); experiment: Hydrolysis of 4-MUBO by porcine bile-salt stimulated cholesterol esterase; format: biochemical; conditions: 4-MUBO substrate; no bile salts added; Supplementary Fig. 1
T2 sequence (A0A286ZKB1 1-682): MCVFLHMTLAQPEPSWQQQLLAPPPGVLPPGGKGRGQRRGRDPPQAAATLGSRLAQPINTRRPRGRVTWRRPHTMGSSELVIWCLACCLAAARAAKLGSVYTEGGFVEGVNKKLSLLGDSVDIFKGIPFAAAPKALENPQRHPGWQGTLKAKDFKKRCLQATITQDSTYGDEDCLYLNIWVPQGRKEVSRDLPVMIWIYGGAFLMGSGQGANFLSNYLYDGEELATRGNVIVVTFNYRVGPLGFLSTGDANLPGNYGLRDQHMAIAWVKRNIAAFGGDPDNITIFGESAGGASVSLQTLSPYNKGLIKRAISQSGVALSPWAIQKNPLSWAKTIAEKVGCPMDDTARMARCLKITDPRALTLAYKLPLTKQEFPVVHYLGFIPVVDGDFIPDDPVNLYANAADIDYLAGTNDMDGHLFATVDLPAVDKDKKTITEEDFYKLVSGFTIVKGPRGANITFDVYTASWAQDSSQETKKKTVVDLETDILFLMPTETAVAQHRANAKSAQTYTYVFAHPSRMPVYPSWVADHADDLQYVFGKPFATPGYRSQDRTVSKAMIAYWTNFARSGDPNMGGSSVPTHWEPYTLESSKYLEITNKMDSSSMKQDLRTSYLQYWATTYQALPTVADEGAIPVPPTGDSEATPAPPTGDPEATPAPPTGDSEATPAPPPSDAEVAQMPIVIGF

THP-1 macrophages = experiment: Cholesteryl ester retention in cholesterol-loaded THP-1 macrophages; format: cell-based, human; conditions: for Total cellular cholesterol content of macrophages / Free cholesterol levels: 50 μM benzil or 10 μM paraoxon, 48-h efflux period; for Free cholesterol levels: vs vehicle
[2] = molecular target: T3, carboxylesterase activity in THP-1 macrophages (Homo sapiens, UniProt P23141); format: cell-based
T3 sequence (P23141 18-567): T1 sequence (P23141 18-567)

[3] = test system: intracellular carboxylesterase activity in U373MG cells; conditions: cited from earlier work
[4] = molecular target: T4, carboxylesterase activity of human THP-1 cell lysates (CES1) (Homo sapiens, UniProt P23141); format: biochemical; conditions: para-nitrophenyl valerate
T4 sequence (P23141 18-567): T1 sequence (P23141 18-567)

[5] = molecular target: T5, carboxylesterase activity (CES1) in intact THP-1 cells (Homo sapiens, UniProt P23141); experiment: Carboxylesterase activity after 24-h treatment of intact THP-1 monocytes; format: cell-based; conditions: for Inhibition of carboxylesterase activity in intact THP-1 monocytes: 24 h treatment of intact cells, activity measured in lysates; for Relative effectiveness at inhibiting carboxylesterase activity in intact cells: 24 h treatment, comparison of the three oxons
T5 sequence (P23141 18-567): T1 sequence (P23141 18-567)

THP-1 cells = experiment: Cell viability by Trypan Blue exclusion after oxon exposure; format: cell-based, human; conditions: 24 h, concentrations of oxon used, data not shown
[6] = cited from earlier work
[7] = test system: cholesteryl ester hydrolase activity in human THP1 cell lysate; experiment: Hydrolysis of cholesteryl [1-14C]oleate; format: biochemical; conditions: 10 μM paraoxon for 10 min before 75 μM cholesteryl [1-14C]oleate
[8] = test system: lipolytic activity of THP-1 cell lysates; experiment: Hydrolysis of 4-MUBO by THP-1 cell lysates; format: biochemical, human; conditions: paraoxon up to 10 μM; Supplementary Fig. 2
CES1 [9] = molecular target: T1, CES1; format: binding
CES1 protein expression = experiment: Western blot of CES1 protein in paraoxon-treated THP-1 cells; format: cell-based, human; conditions: 10 μM paraoxon 24 h

Compound | Inhibition of CEL (porcine pancreatic CEL) | Total cellular cholesterol content of macrophages (THP-1 macrophages) | Free cholesterol levels (THP-1 macrophages) | Inhibition of carboxylesterase activity in cell lysates [4] | Inhibition of carboxylesterase activity in intact THP-1 monocytes [5] | Relative effectiveness at inhibiting carboxylesterase activity in intact cells [5] | Overall cell viability (THP-1 cells) | Lipophilicity rank among the three oxons [6] | other results
O=C(C(=O)c1ccccc1)c1ccccc1 [Benzil, diphenylethane-1,2-dione] | does not inhibit | did not significantly change | similar | – | – | – | – | – | Inhibition of lipase activity of CES1 (CES1 [1]): can be inhibited; Increase in intracellular cholesteryl ester levels (THP-1 macrophages; 50 μM benzil during 48-h cholesterol efflux period): > 3 fold; Carboxylesterase activity in cell lysate from treated macrophages [2]: not significantly inhibited; Inhibition of intracellular carboxylesterase activity ([3]; U373MG cells transfected with plasmids containing mammalian CES cDNA): effective inhibitor; Cell permeability ([3]; U373MG cells): cell-permeable; Cytotoxicity ([3]; U373MG cells): non-cytotoxic
CCOP(=O)(OCC)Oc1nc(Cl)c(Cl)cc1Cl [Chlorpyrifos oxon] | – | – | – | inhibited carboxylesterase activity in cell lysates in a concentration-dependent manner | inhibited by each oxon in a dose-dependent manner | least effective | did not affect overall cell viability | most lipophilic | –
COP(=O)(OC)Oc1ccc([N+](=O)[O-])cc1 [Methyl paraoxon] | – | – | – | inhibited carboxylesterase activity in cell lysates in a concentration-dependent manner | inhibited by each oxon in a dose-dependent manner | – | did not affect overall cell viability | least lipophilic | –
CCOP(=O)(OCC)Oc1ccc([N+](=O)[O-])cc1 [Paraoxon] | very sensitive | did not significantly change | modest but significant reduction | inhibited carboxylesterase activity in cell lysates in a concentration-dependent manner | inhibited by each oxon in a dose-dependent manner | most effective | did not affect overall cell viability | – | Reduction of CEH activity of THP1 cell lysates [7]: 23%; Inhibition of lipase activity of CES1 (CES1 [1]; 4-MUBO substrate, Supplementary Fig. 1): can be inhibited; Inhibition of lipolytic activity of THP-1 cell lysates toward 4-MUBO [8]: no significant inhibiton of lipase activity; Paraoxon concentrations that completely inhibited FP-biotin labeling of CES1 (CES1 [9]; lysate 1 mg/ml pre-treated 15 min at 37°C, then 2 μM FP-biotin 1 h): > 1 nM; Effect on FP-biotin labeling of CES1 (CES1 [9]; pre-treatment with paraoxon at 0.01 nM): did not prevent labeling; CES1 activity on native PAGE gels ([5]; intact cells, 10 μM paraoxon 24 h, α,β-naphthyl acetate stain): markedly inhibited; Amount of CES1 protein compared to control (vehicle) treated cells (CES1 protein expression): no difference; Intracellular cholesteryl ester retention (THP-1 macrophages; 10 μM paraoxon during 48-h cholesterol efflux): significant increase; Inhibition of carboxylesterase activity in cell lysate from treated macrophages ([2]; 10 μM paraoxon, compared to control cells, p≤0.05): 81%
